ChEMBL document CHEMBL1139537, “Examination of phosphoryl-mimicking functionalities within a macrocyclic Grb2 SH2 domain-binding platform” (J Med Chem, 2005)
pIC50, pKd: −log10 of the molar value.

Key:
[1] = target: T1, Growth factor receptor-bound protein 2 (Homo sapiens, UniProt P62993); assay: Binding off-rate against growth factor receptor bound protein 2
Target sequence in this assay (P62993 whole entry): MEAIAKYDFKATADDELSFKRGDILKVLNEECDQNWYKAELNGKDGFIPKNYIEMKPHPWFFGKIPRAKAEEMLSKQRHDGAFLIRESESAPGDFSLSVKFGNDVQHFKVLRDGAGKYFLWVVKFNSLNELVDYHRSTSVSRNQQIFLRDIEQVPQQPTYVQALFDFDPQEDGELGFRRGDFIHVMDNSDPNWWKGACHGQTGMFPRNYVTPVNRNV

[2] = target: T1, Growth factor receptor-bound protein 2; assay: Inhibitory concentration against growth factor receptor bound protein 2
Target sequence in this assay (P62993 whole entry): as above

[3] = target: T1, Growth factor receptor-bound protein 2; assay: Dissociation constant value against growth factor receptor bound protein 2
Target sequence in this assay (P62993 whole entry): as above

[4] = target: T1, Growth factor receptor-bound protein 2; assay: Binding on-rate against growth factor receptor bound protein 2
Target sequence in this assay (P62993 whole entry, looked up): as the sequence (P62993 whole entry) above

Row | SMILES | koff [1] [s⁻¹] | pIC50 [2] | pKd [3] | Ka [4] [M⁻¹ s⁻¹]
1 | Cc1ccc2c(ccn2C[C@@H]2C/C=C/[C@H](c3ccc(CP(=O)(O)Cc4ccccc4)cc3)[C@H](CC(=O)O)C(=O)NC3(CCCCC3)C(=O)N[C@@H](CC(N)=O)C(=O)NC2)c1 | 0.00512 | 8.08 | 7.45 | 
2 | Cc1ccc2c(ccn2C[C@@H]2C/C=C/[C@H](c3ccc(C(C(=O)O)C(=O)O)cc3)[C@H](CC(=O)O)C(=O)NC3(CCCCC3)C(=O)N[C@@H](CC(N)=O)C(=O)NC2)c1 | 0.0227 | 8.48 | 8.44 | 
3 | Cc1ccc2c(ccn2C[C@@H]2C/C=C/[C@H](c3ccc(CC(=O)O)cc3)[C@H](CC(=O)O)C(=O)NC3(CCCCC3)C(=O)N[C@@H](CC(N)=O)C(=O)NC2)c1 | 0.0101 | 7.65 | 7.48 | 
4 | Cc1ccc2c(ccn2C[C@@H]2C/C=C/[C@H](c3ccc(CP(=O)(O)O)cc3)[C@H](CC(=O)O)C(=O)NC3(CCCCC3)C(=O)N[C@@H](CC(N)=O)C(=O)NC2)c1 | 0.00801 | 7.82 | 8.83 | 5.46e+06
5 | Cc1ccc2c(ccn2C[C@@H]2C/C=C/[C@H](c3ccc(NC(=O)C(=O)O)cc3)[C@H](CC(=O)O)C(=O)NC3(CCCCC3)C(=O)N[C@@H](CC(N)=O)C(=O)NC2)c1 | 0.0508 | 8.06 | 7.17 | 
6 | Cc1ccc2c(ccn2C[C@@H]2C/C=C/[C@H](c3ccc([N+](=O)[O-])cc3)[C@H](CC(=O)O)C(=O)NC3(CCCCC3)C(=O)N[C@@H](CC(N)=O)C(=O)NC2)c1 |  |  | < 6.00 | 
7 | Cc1ccc2c(ccn2C[C@@H]2C/C=C/[C@H](c3ccc(CP(C)(=O)O)cc3)[C@H](CC(=O)O)C(=O)NC3(CCCCC3)C(=O)N[C@@H](CC(N)=O)C(=O)NC2)c1 | 0.00988 | 8.20 | 7.79 | 
8 | Cc1ccc2c(ccn2C[C@@H]2C/C=C/[C@H](c3ccc(O)cc3)[C@H](CC(=O)O)C(=O)NC3(CCCCC3)C(=O)N[C@@H](CC(N)=O)C(=O)NC2)c1 |  |  | < 6.00 | 
